SMILES strings stand for the structures.

The target of the first assay is Stromelysin-1 (Homo sapiens, UniProt P08254).
Chain of Stromelysin-1 (P08254 whole entry): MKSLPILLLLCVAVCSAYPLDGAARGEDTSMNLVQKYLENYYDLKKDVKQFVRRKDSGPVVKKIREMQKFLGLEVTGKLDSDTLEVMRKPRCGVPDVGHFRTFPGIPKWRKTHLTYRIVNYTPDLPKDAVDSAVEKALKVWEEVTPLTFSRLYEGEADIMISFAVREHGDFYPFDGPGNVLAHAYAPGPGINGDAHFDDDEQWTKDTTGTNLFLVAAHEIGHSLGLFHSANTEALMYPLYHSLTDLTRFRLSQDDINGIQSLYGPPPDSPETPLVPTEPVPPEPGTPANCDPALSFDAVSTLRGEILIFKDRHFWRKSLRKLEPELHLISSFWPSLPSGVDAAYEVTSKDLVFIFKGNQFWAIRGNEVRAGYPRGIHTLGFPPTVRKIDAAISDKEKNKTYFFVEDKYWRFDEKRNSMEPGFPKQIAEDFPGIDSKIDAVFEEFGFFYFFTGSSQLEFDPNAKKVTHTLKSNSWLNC
Description: Inhibitory concentration against Matrix metalloprotease-3
Consider `Sc1nnc(NCc2ccccc2)s1`, for which the IC50 (commonly the concentration at which inhibition is half-maximal) was found to be 97 µM. On the same count and under the same terms, with `O=C(NCc1ccccc1)Nc1nncs1` the figure was > 2000 µM; with `O=C(NCc1cccc2ccccc12)Nc1nnc(S)s1`, 23 µM.

In the case of `Sc1nnc(Nc2ccccc2)s1`, the IC50 is 190 µM.

Compound `O=C(Nc1ccc(F)cc1)Nc1nnc(S)s1` registered an IC50 of 29 µM.

As to `Sc1nnc(NCCCCc2ccccc2)s1`, the IC50 was found to be 318 µM.

For `Sc1nnc(NCCc2ccccc2)s1`, half-maximal inhibition (IC50) was put at 47 µM. Take `CCN(C(=O)NCCc1ccccc1)c1nnc(S)s1`: the IC50 is > 1000 µM. On the same count and under the same terms, to `Cn1nc(NC(=O)NCCc2ccccc2)sc1=S` belongs 694 µM; to `Sc1nnc(NCc2ccco2)s1`, 289 µM; to `CCNc1nnc(S)s1`, > 2000 µM. The same measure, in the same setting: with `O=C(NCCCCc1ccccc1)Nc1nnc(S)s1` the figure was 34 µM. Still for that read-out and setting: to `Cc1cccc(Cl)c1Nc1nnc(S)s1` belongs 173 µM; to `O=C(Nc1ccccc1)Nc1nnc(S)s1`, 99 µM; to `CCCCCCCCCCCCNc1nnc(S)s1`, 97 µM.

Another assay concerns the target T1, Interstitial collagenase (Homo sapiens, UniProt P03956).
T1 sequence (P03956 whole entry): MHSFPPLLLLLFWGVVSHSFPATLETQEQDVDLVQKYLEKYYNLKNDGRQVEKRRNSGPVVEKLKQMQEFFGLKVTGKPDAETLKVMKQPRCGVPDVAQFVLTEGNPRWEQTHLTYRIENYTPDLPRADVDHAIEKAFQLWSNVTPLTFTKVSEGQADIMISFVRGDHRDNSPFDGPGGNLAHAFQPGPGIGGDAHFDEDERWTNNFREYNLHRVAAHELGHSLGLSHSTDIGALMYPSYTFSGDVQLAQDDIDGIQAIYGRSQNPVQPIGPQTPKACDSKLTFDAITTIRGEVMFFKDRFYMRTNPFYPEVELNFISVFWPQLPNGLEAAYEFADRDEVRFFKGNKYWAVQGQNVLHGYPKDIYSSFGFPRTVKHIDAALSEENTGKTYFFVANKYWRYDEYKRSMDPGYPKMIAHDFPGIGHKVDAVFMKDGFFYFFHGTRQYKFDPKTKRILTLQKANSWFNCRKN
Description: Binding affinity for matrix metalloprotease-1
For the compound `CNC(=O)[C@H](Cc1ccccc1)NC(=O)Nc1nnc(S)s1`, the Ki (as a rule, a measure of affinity in units of concentration, obtained from inhibition or displacement) was determined as 31 µM. On the same count and under the same terms, to `CNC(=O)[C@H](CC(C)C)NC(=O)Nc1nnc(S)s1` belongs > 200 µM; to `CNC(=O)[C@H](CO)NC(=O)Nc1n[nH]c(=S)s1`, > 200 µM.

Compound `COc1ccc(N2CCN(C(=O)[C@H](Cc3ccccc3)NC(=O)Nc3nnc(S)s3)CC2)cc1` came in with a Ki of 6 µM. Compound `COc1ccc(CNC(=O)[C@H](Cc2ccccc2)NC(=O)Nc2nnc(S)s2)cc1OC` gave an inhibitory constant (Ki) of 6.2 µM. Compound `O=C(Nc1nnc(S)s1)N[C@@H](Cc1ccccc1)C(=O)N1CCSCC1` showed a Ki of 12 µM. On the same count and under the same terms, to `O=C(Nc1nnc(S)s1)N[C@@H](Cc1ccccc1)C(=O)O` belongs > 200 µM; to `O=C(Nc1nnc(S)s1)N[C@@H](Cc1ccccc1)C(=O)N1CCCC1`, 20 µM; to `CNC(=O)[C@H](Cc1c(F)c(F)c(F)c(F)c1F)NC(=O)Nc1nnc(S)s1`, 3 µM.

The compound `O=C(Nc1nnc(S)s1)N[C@@H](Cc1ccccc1)C(=O)N1CCN(Cc2ccccc2)CC1` gave a Ki of 29 µM. On the same count and under the same terms, to `O=C(Nc1nnc(S)s1)N[C@@H](Cc1ccccc1)C(=O)N1CCN(c2ccccn2)CC1` belongs 1.5 µM.

In turn, `CNC(=O)[C@H](Cc1ccc(O)cc1)NC(=O)Nc1nnc(S)s1` returned a Ki of 21 µM. The same measure, in the same setting: with `O=C(Nc1nnc(S)s1)N[C@@H](Cc1ccccc1)C(=O)NCC1CCCCC1` the figure was > 200 µM. On the same count and under the same terms, with `CNC(=O)[C@H](Cc1ccc(OC)cc1)NC(=O)Nc1nnc(S)s1` the figure was 16 µM; with `O=C(Nc1nnc(S)s1)N[C@@H](Cc1ccc(F)cc1)C(=O)N1CCN(c2ccccn2)CC1`, 1.8 µM; with `O=C(Nc1nnc(S)s1)N[C@@H](Cc1c(F)c(F)c(F)c(F)c1F)C(=O)N1CCN(c2ccccn2)CC1`, 0.77 µM.

Consider `COC(=O)[C@H](Cc1ccccc1)NC(=O)Nc1nnc(S)s1`, for which the affinity corresponds to a Ki of 17 µM. On the same count and under the same terms, with `NC(=O)[C@H](Cc1ccccc1)NC(=O)Nc1nnc(S)s1` the figure was > 200 µM; with `O=C(Nc1nnc(S)s1)N[C@@H](Cc1ccccc1)C(=O)N1CCN(c2ncccn2)CC1`, 16 µM. On the same count and under the same terms, to `O=C(Nc1nnc(S)s1)N[C@@H](Cc1ccccc1)C(=O)NCc1ccccc1` belongs 15 µM; to `CNC(=O)[C@@H](Cc1ccccc1)NC(=O)Nc1n[nH]c(=S)s1`, > 200 µM; to `CNC(=O)[C@H](CC1CCCCC1)NC(=O)Nc1n[nH]c(=S)s1`, 67 µM.

Consider `CNC(=O)[C@@H](NC(=O)Nc1n[nH]c(=S)s1)c1ccccc1`, for which the affinity, expressed as Ki, was 41 µM. Still for that read-out and setting: with `CNC(=O)CNC(=O)Nc1n[nH]c(=S)s1` the figure was > 100 µM.

`CN(C)C(=O)[C@H](Cc1ccccc1)NC(=O)Nc1nnc(S)s1` yielded a Ki of 226 µM.

The compound `CNC(=O)[C@H](COCc1ccccc1)NC(=O)Nc1nnc(S)s1` displayed an inhibition constant Ki of 52 µM. Same read-out and setting: to `CNC(=O)[C@H](Cc1ccc(F)cc1)NC(=O)Nc1nnc(S)s1` belongs 8.9 µM; to `O=C(Nc1nnc(S)s1)N[C@@H](Cc1ccccc1)C(=O)N1CCOCC1`, 32 µM; to `CNC(=O)[C@H](Cc1ccc([N+](=O)[O-])cc1)NC(=O)Nc1nnc(S)s1`, 15 µM.

The record behind these values is ChEMBL document CHEMBL1132172, “Synthesis of a series of stromelysin-selective thiadiazole urea matrix metalloproteinase inhibitors” (J Med Chem, 1999).
